In the CheMixHub viscosity set:
Several values for one entry are separate records, joined by “and”; a condition that tells them apart may be missing. Equal values may be shown once.

Experiment: xn = mol fraction of the nth substance listed

CSCC[C@H](N)C(=O)O + O
viscosity, 101 kPa
Conditions	293.15 K	298.15 K	303.15 K	308.15 K	313.15 K	318.15 K
x1 = 0.00045	1.011 mPa·s and 1.009 mPa·s	0.8992 mPa·s and 0.8967 mPa·s	0.8057 mPa·s and 0.8039 mPa·s	0.727 mPa·s and 0.7258 mPa·s	0.6602 mPa·s and 0.6603 mPa·s	0.6044 mPa·s
x1 = 0.0009	1.019 mPa·s and 1.016 mPa·s	0.9063 mPa·s and 0.903 mPa·s	0.8126 mPa·s and 0.8103 mPa·s	0.734 mPa·s and 0.7327 mPa·s	0.6671 mPa·s and 0.6678 mPa·s	–
x1 = 0.0013	1.023 mPa·s	0.9098 mPa·s	0.8169 mPa·s	0.7392 mPa·s	0.6743 mPa·s	–
x1 = 0.00135	–	0.9131 mPa·s	0.8195 mPa·s	0.7408 mPa·s	0.6735 mPa·s	0.6178 mPa·s
x1 = 0.001798	–	–	0.8264 mPa·s	0.7475 mPa·s	–	0.6244 mPa·s
x1 = 0.0018	–	0.9165 mPa·s	0.8232 mPa·s	0.745 mPa·s	0.6815 mPa·s	–
x1 = 0.002247	1.039 mPa·s	0.9266 mPa·s	0.833 mPa·s	0.754 mPa·s	0.687 mPa·s	0.631 mPa·s
x1 = 0.00225	1.037 mPa·s	0.9232 mPa·s	0.8295 mPa·s	0.7524 mPa·s	0.688 mPa·s	–
x1 = 0.00269	1.044 mPa·s	0.9295 mPa·s	0.8368 mPa·s	0.7588 mPa·s	0.6951 mPa·s	–
x1 = 0.002693	1.046 mPa·s	0.9335 mPa·s	0.8396 mPa·s	0.7607 mPa·s	0.6936 mPa·s	0.6373 mPa·s
x1 = 0.00314	1.05 mPa·s	0.936 mPa·s	0.8435 mPa·s	0.7657 mPa·s	0.7019 mPa·s	–
x1 = 0.003143	1.053 mPa·s	0.9403 mPa·s	0.8465 mPa·s	0.7675 mPa·s	0.6999 mPa·s	0.6436 mPa·s
x1 = 0.003588	1.06 mPa·s	0.9474 mPa·s	0.8535 mPa·s	0.7743 mPa·s	0.7063 mPa·s	0.6495 mPa·s
x1 = 0.00359	1.057 mPa·s	0.9426 mPa·s	0.85 mPa·s	0.7724 mPa·s	0.7087 mPa·s	–

Cc1ccc[n+](CCCO)c1.[Cl-] + O
viscosity [mPa·s], 100 kPa
Conditions	x1 = 0.001832	x1 = 0.002695	x1 = 0.003588	x1 = 0.005369	x1 = 0.007151	x1 = 0.008924
293.15 K	1.065	1.09	1.114	1.16	1.204	1.246
298.15 K	0.943	0.965	0.986	1.025	1.063	1.1
303.15 K	0.841	0.86	0.877	0.912	0.945	0.976
308.15 K	0.757	0.773	0.789	0.819	0.848	0.876
313.15 K	0.682	0.696	0.709	0.735	0.76	0.784

Cc1ncc[nH]1 + O
viscosity [mPa·s], 100 kPa
Conditions	x1 = 0.0238	x1 = 0.0373	x1 = 0.052	x1 = 0.0682	x1 = 0.086
298.15 K	1.151	1.312	1.494	1.718	1.971
303.15 K	1.02	1.16	1.315	1.498	1.707
313.15 K	0.838	0.933	1.07	1.214	1.379
323.15 K	0.696	0.767	0.87	0.978	1.1

F.[F-].[Na+] + O
viscosity [mPa·s], 100 kPa
Conditions	x1 = 0.003	x1 = 0.006	x1 = 0.009
298.15 K	0.939	0.9963	1.068
323.15 K	0.578	0.61	0.657

NCC(=O)[O-].[Na+] + O
viscosity [mPa·s], 101 kPa
Conditions	x1 = 0.01	x1 = 0.0194	x1 = 0.0289	x1 = 0.0371	x1 = 0.048
298.15 K	1.124	1.41	1.747	2.15	2.82
308.15 K	0.904	1.106	1.369	1.662	2.13
323.15 K	0.677	0.818	0.993	1.183	1.479

O=C1CCCO1 + O
viscosity [mPa·s]
Conditions	298.15 K	303.15 K	308.15 K	313.15 K	318.15 K	323.15 K
101 kPa, x1 = 0.0503	1.233	1.096	0.9821	0.8569	0.8041	–
101 kPa, x1 = 0.0995	1.481	1.312	1.171	1.031	0.9551	–
101 kPa, x1 = 0.1997	1.783	1.577	1.407	1.248	1.143	–
101 kPa, x1 = 0.2994	1.896	1.686	1.509	1.346	1.232	–
101 kPa, x1 = 0.3997	1.915	1.711	1.538	1.379	1.266	–
101 kPa, x1 = 0.499	1.875	1.688	1.528	1.379	1.273	–
101 kPa, x1 = 0.5994	–	1.637	1.493	1.356	1.26	–
101 kPa, x1 = 0.701	1.754	1.603	1.471	1.343	1.255	–
101 kPa, x1 = 0.7995	1.716	1.578	1.457	1.337	1.256	–
101 kPa, x1 = 0.8996	1.697	1.569	1.457	1.343	1.267	–
101 kPa, x2 = 0.3	1.645	–	–	–	–	–
101 kPa, x2 = 0.9	1.385	–	–	–	–	–
101.33 kPa, x2 = 0.0898	–	1.56	–	1.339	–	1.163
101.33 kPa, x2 = 0.2337	–	1.595	–	1.349	–	1.159
101.33 kPa, x2 = 0.6207	–	1.674	–	1.349	–	1.112
101.33 kPa, x2 = 0.9031	–	1.257	–	1.005	–	0.8246
